# Experimental data: patent US20240148709A1, “METHODS OF TREATING EYE PAIN AND EYE DISORDERS” (Aisa Pharma, Inc., priority 2022, published 2024)
# “Also recorded” adds a separate entry of the source. Marks after values point to notes of the source that are not given here.
# Legend:
# [1] = oral dosing; cited from earlier work
# Nav 1.7 sodium channel = Nav 1.7 sodium channel (Homo sapiens, UniProt Q15858); details: 20 mg dose of cilnidipine; cited from earlier work
# participants with SSc-RP [2] = experiment: Safety: adverse events and withdrawals, Phase 2a study Part A; type: in vivo; details: for overall adverse event rate: all patients who received any dose of cilnidipine (n=17)
# Description: • Incidence of treatment emergent adverse events (AEs) and serious adverse events (SAEs), including clinically significant vital signs. For Part A safety will be assessed from the time of randomization until 7 days following the last protocol dose. For Part B, participants will be followed for 28 days from the last study dose. • Serious adverse events will be monitored by a DSMB (Part A) and Drug Safety Officer (Part B) on an ongoing basis throughout the study. • Adverse events will be coded using the MedDRA and summarized by SOC, PT, and treatment group.
# Severity of AEs will be graded by the Investigator as one of: • Mild (Grade 1): A type of AE that is usually transient and may require only minimal treatment or therapeutic intervention.
# Adverse events will be coded using the most current version of the MedDRA® Version 22.0 or higher. The analysis of AEs will be based on the concept of treatment emergent AEs. Treatment emergent AEs will be tabulated by treatment group and will include the number of participants for whom the event occurred, the severity, and relationship to study drug. Treatment emergent AEs (TEAEs) leading to discontinuation and SAEs with onset after the start of study drug will also be summarized. All AEs and SAEs (including those with onset or worsening before the start of study drug) through the end of the study will be listed.
# participants with SSc-RP [3] = experiment: Raynaud's attack diary endpoints (frequency, duration, severity, pain, RCS), Phase 2a study Part A; type: in vivo, human
# Procedure: Part A—double-blind, placebo-controlled, parallel-group, dose selection, will assess the safety and efficacy of two doses of cilnidipine (10 mg and 20 mg), alone and in combination with tadalafil. A total of 36 participants will be randomized to one of six prespecified treatment arms. Refer to FIG. 1 for treatment arms in Part A of the study. Dosing last for 12 (±2) days in which participants will self-administer daily doses of assigned treatment in the morning. Each participant will take one capsule and one tablet to blind the active therapy being received.
# During screening, the Diary will collect the following data to confirm eligibility and serve as the baseline measure for efficacy endpoints should the participant be randomized: • Number of daily Raynaud's attacks • Duration of each attack • Symptoms of each attack, including numbness, pain, tingling, color changes • Severity of each attack (all symptoms of the attack to be considered including tingling, numbness, pain, color changes) • Location of participant during each attack (inside/outside) • Pain score of each attack-using 11-point Likert scale, a validated pain scale which can be used to record intensity of pain. • Daily RCS— a validated outcome measure used to assess the level of difficulty experienced due to RP each day.
# The relevant metrics measured by this tool daily are: • Study medication • SSc-RP symptoms (Reporting an attack including duration of attack) • Severity of the attack considering all symptoms of the attack e.g. tingling, numbness, pain, color changes (VAS 0-10 cm scale) • Participant's location at the time of the attack (inside home/outside home) • Selecting symptoms experienced during the attack (tingling, numbness, pain, color changes, other) • Pain rating during the attack (11-point Likert scale) • The RCS based on how much difficulty participants had with Raynaud's today, how many attacks the participant had, and how long they lasted. Participants will also be asked to consider how much pain, numbness, or other symptoms the Raynaud's caused in fingers (including painful sores), and how much the Raynaud's alone affected the use of hands today (VAS 0-10 cm scale).
# Percent change from baseline evaluation for frequency of weekly RP attacks will be the primary efficacy endpoint. Data collected in the last 7 days of each dosing period will be used for this analysis. Screening assessments will be used as baseline for the analysis of all periods. No multiple comparison adjustment will be used to control alpha for the multiple comparisons. Mixed effects model will be used for analysis of the primary endpoint according to the crossover design. Other efficacy endpoints of continuous variables will be analyzed using similar methodology. For nominal data, chi-square tests will be applied. Generalized Estimating Equations method will be used, as appropriate, for adjusting for potential confounding factors. In addition, the final analysis will assess whether in this study of severe Raynaud's disease participants, the minimally important difference, previously concluded of 14-15 points on the 100 point RCS scale has been achieved in the cilnidipine dose group. It also will record the percentage of participants achieving a PASS (34 point difference from baseline on a 0-100 VAS) in each treatment group.
# [4] = given orally; cited from earlier work
# [5] = 10 mg cilnidipine, healthy volunteers, single oral dose, cited from earlier work
# [6] = cilnidipine 10 mg and/or tadalafil 5 mg arms
# [7] = cilnidipine 20 mg arms (alone or + tadalafil 5 mg)
# Chain of Nav 1.7 sodium channel (Q15858 whole entry): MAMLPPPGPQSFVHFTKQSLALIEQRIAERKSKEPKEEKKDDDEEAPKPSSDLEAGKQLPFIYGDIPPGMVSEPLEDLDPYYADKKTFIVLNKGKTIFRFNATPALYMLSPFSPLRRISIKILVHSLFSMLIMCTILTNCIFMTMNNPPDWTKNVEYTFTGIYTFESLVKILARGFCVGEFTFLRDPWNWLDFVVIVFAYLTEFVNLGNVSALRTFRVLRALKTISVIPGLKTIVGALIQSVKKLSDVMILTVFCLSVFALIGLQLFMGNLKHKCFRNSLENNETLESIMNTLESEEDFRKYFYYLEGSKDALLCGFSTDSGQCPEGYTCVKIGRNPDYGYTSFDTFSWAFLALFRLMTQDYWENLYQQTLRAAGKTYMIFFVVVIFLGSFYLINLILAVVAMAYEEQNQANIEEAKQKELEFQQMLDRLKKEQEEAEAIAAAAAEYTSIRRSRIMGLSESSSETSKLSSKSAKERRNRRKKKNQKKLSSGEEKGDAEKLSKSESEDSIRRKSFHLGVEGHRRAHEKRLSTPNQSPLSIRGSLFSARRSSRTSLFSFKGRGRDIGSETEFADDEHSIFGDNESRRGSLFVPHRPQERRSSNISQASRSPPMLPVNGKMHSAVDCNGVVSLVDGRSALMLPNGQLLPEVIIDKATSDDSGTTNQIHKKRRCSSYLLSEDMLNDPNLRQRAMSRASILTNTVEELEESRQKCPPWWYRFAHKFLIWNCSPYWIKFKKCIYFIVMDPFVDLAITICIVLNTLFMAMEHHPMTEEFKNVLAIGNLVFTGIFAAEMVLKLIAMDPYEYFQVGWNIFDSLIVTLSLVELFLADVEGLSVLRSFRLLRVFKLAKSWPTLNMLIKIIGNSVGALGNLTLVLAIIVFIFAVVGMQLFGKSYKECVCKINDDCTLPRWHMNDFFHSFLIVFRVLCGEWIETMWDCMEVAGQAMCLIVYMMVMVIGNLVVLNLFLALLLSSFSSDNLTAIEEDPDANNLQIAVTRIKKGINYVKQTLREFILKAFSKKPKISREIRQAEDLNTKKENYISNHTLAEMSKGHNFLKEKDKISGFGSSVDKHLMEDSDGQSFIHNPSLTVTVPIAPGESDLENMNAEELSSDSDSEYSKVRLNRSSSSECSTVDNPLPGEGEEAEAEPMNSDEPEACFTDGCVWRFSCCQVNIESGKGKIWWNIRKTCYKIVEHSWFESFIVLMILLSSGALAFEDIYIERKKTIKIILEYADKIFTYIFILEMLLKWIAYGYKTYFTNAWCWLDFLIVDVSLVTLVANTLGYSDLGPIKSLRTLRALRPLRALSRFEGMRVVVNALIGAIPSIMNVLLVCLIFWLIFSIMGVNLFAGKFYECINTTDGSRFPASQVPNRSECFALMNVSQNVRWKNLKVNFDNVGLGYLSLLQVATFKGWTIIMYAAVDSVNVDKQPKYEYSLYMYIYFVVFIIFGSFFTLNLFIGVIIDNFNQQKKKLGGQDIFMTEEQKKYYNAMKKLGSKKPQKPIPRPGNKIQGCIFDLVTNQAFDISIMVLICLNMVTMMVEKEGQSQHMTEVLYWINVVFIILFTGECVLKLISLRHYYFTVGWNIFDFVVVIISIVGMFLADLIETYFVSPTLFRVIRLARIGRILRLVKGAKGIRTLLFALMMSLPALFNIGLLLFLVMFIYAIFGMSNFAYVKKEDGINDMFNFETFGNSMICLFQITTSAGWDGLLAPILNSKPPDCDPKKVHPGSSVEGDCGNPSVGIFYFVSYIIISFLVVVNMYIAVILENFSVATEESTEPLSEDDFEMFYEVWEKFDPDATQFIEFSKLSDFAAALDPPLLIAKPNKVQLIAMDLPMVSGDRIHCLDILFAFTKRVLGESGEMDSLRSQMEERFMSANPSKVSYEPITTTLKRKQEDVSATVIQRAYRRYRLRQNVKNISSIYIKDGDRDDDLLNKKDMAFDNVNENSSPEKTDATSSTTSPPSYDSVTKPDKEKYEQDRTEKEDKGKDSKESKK
compound,measurement,setting,value
"COCCOC(=O)C1=C(C)NC(C)=C(C(=O)OC/C=C/c2ccccc2)C1c1cccc([N+](=O)[O-])c1 (stereo not shown) [Cilnidipine, cilnidipine]",time to achieve maximal plasma concentration (Tmax),[1],≤ 2 h
same,inhibition of Nav 1.7 compared to an 1800 mg dose of gabapentin,Nav 1.7 sodium channel,> 6 fold
same,tolerability,"participants with SSc-RP [2]; 10 mg and 20 mg, alone or in combination with tadalafil",well tolerated; also recorded: good tolerability
same,Safety: withdrawals,participants with SSc-RP [2]; Cilnidipine 20 mg column (n = 8),1 withdrawal
same,Safety: number of AE,"participants with SSc-RP [2]; Cilnidipine 20 mg, HA-mild (n = 8)",1AE (HA-mild;
same,Safety: number of AE,"participants with SSc-RP [2]; Pooled Cilnidipine, in combo with T (n = 9)",1AE (in combo
same,overall adverse event rate,participants with SSc-RP [2],17%
same,overall adverse event rate,participants with SSc-RP [2]; listed as Profervia,17% adverse
same,treatment discontinuations due to intolerance,participants with SSc-RP [2]; any dose of cilnidipine (n=17),no treatment discontinuations due to intolerance
same,severity grade of adverse events,participants with SSc-RP [2]; patients treated with cilnidipine,only Grade 1 Adverse Events (AEs) were reported; also recorded: only mild (Grade 1) adverse events occurred
same,"Subgroup Baseline RCS <3.5, % change",participants with SSc-RP [3]; Cilnidipine 20 mg (n = 1),baseline −42%
same,"Subgroup Baseline RCS >3.5-7.5, % change",participants with SSc-RP [3]; Cilnidipine 20 mg (n = 2),baseline −43%
same,"Subgroup attack frequency, <10 baseline, % change",participants with SSc-RP [3]; Cilnidipine 20 mg (n = 2),baseline −29%
same,"Subgroup attack frequency, >10 baseline, % change",participants with SSc-RP [3]; Cilnidipine 20 mg (n = 2),baseline −50%
same,"Average Raynaud's Pain, % change",participants with SSc-RP [3]; Cilnidipine 20 mg (n = 3),12%
same,Daily RCS Change,participants with SSc-RP [3]; Cilnidipine 20 mg (n = 3),−28%
same,"Duration, % change",participants with SSc-RP [3]; Cilnidipine 20 mg (n = 3),−20%
same,Mean % reduction in RCS,participants with SSc-RP [3]; Cilnidipine 20 mg (n = 3),27.9%
same,Mean % reduction in duration,participants with SSc-RP [3]; Cilnidipine 20 mg (n = 3),20.0%
same,Mean % reduction in pain,participants with SSc-RP [3]; Cilnidipine 20 mg (n = 3),−11.8%
same,Mean % reduction in severity,participants with SSc-RP [3]; Cilnidipine 20 mg (n = 3),35.5%
same,Mean % reduction of weekly attacks,participants with SSc-RP [3]; Cilnidipine 20 mg (n = 3),43%
same,"Severity, % change",participants with SSc-RP [3]; Cilnidipine 20 mg (n = 3),−36%
same,"Weekly attack frequency, % change",participants with SSc-RP [3]; Cilnidipine 20 mg (n = 3),−43%
same,"Weekly attack frequency, % change, if baseline RCS <3.5",participants with SSc-RP [3]; Cilnidipine 20 mg (n = 3),−42%
same,"Subgroup Baseline RCS 3.5-7.5, % change",participants with SSc-RP [3]; Pooled Cilnidipine (n = 1),baseline −86%
same,"Subgroup attack frequency, <10 baseline, % change",participants with SSc-RP [3]; Pooled Cilnidipine (n = 2),baseline −55%
same,"Subgroup attack frequency, >10 baseline, % change",participants with SSc-RP [3]; Pooled Cilnidipine (n = 2),baseline −28%
same,Daily RCS Change,participants with SSc-RP [3]; Pooled Cilnidipine (n = 3),12% (n = 3)
same,"Subgroup Baseline RCS <3.5, % change",participants with SSc-RP [3]; Pooled Cilnidipine (n = 3),baseline −27%
same,"Average Raynaud's Pain, % change",participants with SSc-RP [3]; Pooled Cilnidipine (n = 7),−27%
same,"Duration, % change",participants with SSc-RP [3]; Pooled Cilnidipine (n = 7),20%
same,"Severity, % change",participants with SSc-RP [3]; Pooled Cilnidipine (n = 7),−16%
same,"Weekly attack frequency, % change",participants with SSc-RP [3]; Pooled Cilnidipine (n = 7),−41%
same,"Weekly attack frequency, % change, if baseline RCS <3.5",participants with SSc-RP [3]; Pooled Cilnidipine (n = 7),−27%
same,DSMB finding on Raynaud's endpoints,participants with SSc-RP [3]; both doses (10 and 20 mg),effective at reducing Raynaud's endpoints
same,Average Pain Score Change From Baseline [Mean (SD)],participants with SSc-RP [3]; [6],0.47 (0.558)
same,Average Pain Score Percent Change from Baseline [Mean (SD)],participants with SSc-RP [3]; [6],11.76 (27.478)† %
same,Average Pain Score [Mean (SD)] after treatment (Raynaud's pain),participants with SSc-RP [3]; [6],2.82 (2.268)
same,Average Pain Score Change From Baseline [Mean (SD)],participants with SSc-RP [3]; [7],−0.47 (2.025)
same,Average Pain Score Percent Change from Baseline [Mean (SD)],participants with SSc-RP [3]; [7],−26.89 (89.725)* %
same,Average Pain Score [Mean (SD)] after treatment (Raynaud's pain),participants with SSc-RP [3]; [7],1.28 (1.993)
same,protein binding in plasma,[4],98%
same,AUCinf,[5]; mean (±SD),41.2 (±20.4) ng*h/mL
same,AUClast,[5]; mean (±SD),37.0 (±17.9) ng*hr/mL
same,CL/F,[5]; mean (±SD),304.7(±147.5) L/hr
same,Cmax,[5]; mean (±SD),8.9 (±4.2) ng/mL
same,T1/2,[5]; mean (±SD),7.5(±1.0) hr
same,Tmax,[5]; median (minimum-maximum),2 (0.5-5) hr
"CN1CC(=O)N2[C@H](c3ccc4c(c3)OCO4)c3[nH]c4ccccc4c3C[C@@H]2C1=O [Tadalafil, tadalafil]",Average Pain Score Change From Baseline [Mean (SD)],participants with SSc-RP [3]; [6],0.37 (2.219)
same,Average Pain Score Percent Change from Baseline [Mean (SD)],participants with SSc-RP [3]; [6],17.20 (64.838) %
same,Average Pain Score [Mean (SD)] after treatment (Raynaud's pain),participants with SSc-RP [3]; [6],5.84 (4.768)
